Results as given in publication PMC4471902, “Block of NMDA receptor channels by endogenous neurosteroids: implications for the agonist induced conformational states of the channel vestibule” (Scientific Reports, 2015).
Structures can show the parent of a compound that is named as a salt. Where two headings read alike, the source gives them in different places.

Experiments:
[1] = system: GluR0 (potassium-selective prokaryotic glutamate receptor); test: Whole-cell patch-clamp of GluR0 receptor responses in transfected HEK293 cells; type: cell-based, Synechocystis PCC 6803; details: 1 mM glutamate, PA-S 300 µM
Excerpt: Human embryonic kidney (HEK293) cells were transfected with expression vectors containing: GluN1–1a (GenBank accession number U08261)[52]; GluN2B (GenBank accession number M91562); GluN1-4a(F484A), (generous gift from Dr. J. J. Woodward)[53] (Smothers & Woodward, 2009); GluN3A (generous gift from Dr. S. A. Lipton)[54] (GenBank accession number NM_138546); GluN1ΔN with deleted 354 amino acids in the NTD (32 to 386); GluN1ΔC with an introduced stop codon in 838 of the CTD GluN2BΔN) with deleted 354 amino acids in the NTD (32 to 386); GluN2BΔC with an introduced stop codon in 844 of the CTD[55]; GluR0 (GenBank accession number Synechocystis PCC 6803) (generous gift from Dr. M. L. Mayer)[18]; and green fluorescent protein (GFP) (pQBI 25, Takara, Tokyo, Japan) genes, as described previously. The Quick-Change site-directed mutagenesis kit (Agilent Technologies, Santa Clara, CA, USA) was used to generate specific point mutations in the M1/M3 region according to the manufacturer’s instructions using manually designed primers purchased from Sigma. Modified DNA plasmids were transformed into competent XL10-Gold E.coli cells, positive clones were selected, and isolated DNA was sequenced. […] All mutations were verified by DNA sequencing (Macrogen, Seoul, Korea or SeQme, Dobris, Czech Republic). […]

[2] = target: T1, GluN1-4a(F484A)/eGFP-GluN3A receptor (Rattus norvegicus, UniProt P35439+Q9R1M7, F484A); test: Whole-cell patch-clamp of glycine-activated GluN1-4a(F484A)/eGFP-GluN3A receptor responses in HEK293 cells; type: cell-based
T1 construct: eGFP; expressed in transfected cells; host or cells: HEK293
Excerpt: (§1) Human embryonic kidney (HEK293) cells were transfected with expression vectors containing: GluN1–1a (GenBank accession number U08261)[52]; GluN2B (GenBank accession number M91562); GluN1-4a(F484A), (generous gift from Dr. J. J. Woodward)[53] (Smothers & Woodward, 2009); GluN3A (generous gift from Dr. S. A. Lipton)[54] (GenBank accession number NM_138546); GluN1ΔN with deleted 354 amino acids in the NTD (32 to 386); GluN1ΔC with an introduced stop codon in 838 of the CTD GluN2BΔN) with deleted 354 amino acids in the NTD (32 to 386); GluN2BΔC with an introduced stop codon in 844 of the CTD[55]; GluR0 (GenBank accession number Synechocystis PCC 6803) (generous gift from Dr. M. L. Mayer)[18]; and green fluorescent protein (GFP) (pQBI 25, Takara, Tokyo, Japan) genes, as described previously. The Quick-Change site-directed mutagenesis kit (Agilent Technologies, Santa Clara, CA, USA) was used to generate specific point mutations in the M1/M3 region according to the manufacturer’s instructions using manually designed primers purchased from Sigma. Modified DNA plasmids were transformed into competent XL10-Gold E.coli cells, positive clones were selected, and isolated DNA was sequenced. […]
(§2) The IC50 was determined from a single dose of a steroid using the formula [drawing 1] where I is the relative degree of inhibition and [steroid] is the steroid concentration used. […]

[3] = target: T2, GluN1(T648A)/GluN2B receptors (Rattus norvegicus, UniProt P35439+Q00960, T648A); test: Whole-cell patch-clamp of GluN1(T648A)/GluN2B receptor responses in HEK293 cells; type: cell-based; details: for inhibition at 200 µM: HEK293, PA-S 200 μM
T2 construct: expressed in transfected cells; host or cells: HEK293
Excerpt: (§3) Human embryonic kidney (HEK293) cells were transfected with expression vectors containing: GluN1–1a (GenBank accession number U08261)[52]; GluN2B (GenBank accession number M91562); GluN1-4a(F484A), (generous gift from Dr. J. J. Woodward)[53] (Smothers & Woodward, 2009); GluN3A (generous gift from Dr. S. A. Lipton)[54] (GenBank accession number NM_138546); GluN1ΔN with deleted 354 amino acids in the NTD (32 to 386); GluN1ΔC with an introduced stop codon in 838 of the CTD GluN2BΔN) with deleted 354 amino acids in the NTD (32 to 386); GluN2BΔC with an introduced stop codon in 844 of the CTD[55]; GluR0 (GenBank accession number Synechocystis PCC 6803) (generous gift from Dr. M. L. Mayer)[18]; and green fluorescent protein (GFP) (pQBI 25, Takara, Tokyo, Japan) genes, as described previously. The Quick-Change site-directed mutagenesis kit (Agilent Technologies, Santa Clara, CA, USA) was used to generate specific point mutations in the M1/M3 region according to the manufacturer’s instructions using manually designed primers purchased from Sigma. Modified DNA plasmids were transformed into competent XL10-Gold E.coli cells, positive clones were selected, and isolated DNA was sequenced. […] All mutations were verified by DNA sequencing (Macrogen, Seoul, Korea or SeQme, Dobris, Czech Republic). The amino acids are numbered according to the full-length protein, including the signal peptide, with the initiating methionine as 1.
(§4) Experiments were performed 24–48 hrs after transfection on cells transfected with GluN1/GluN2B/GFP plasmids. Whole-cell voltage-clamp recordings from HEK293 cells were made with a patch-clamp amplifier (Axopatch 200B; Axon Instruments, Inc., Foster City, CA) after a capacitance and series resistance (<10 MΩ) compensation of 80–90%.
(§5) Patch pipettes (3–5 MΩ) were filled with a solution containing (in mM): 120 gluconic acid, 15 CsCl, 10 BAPTA, 10 HEPES, 3 MgCl2, 1 CaCl2, and 2 ATP-Mg salt (pH-adjusted to 7.2 with CsOH). When GluR0 receptor responses were studied, intracellular solution contained (in mM): 120 gluconic acid, 15 KCl, 10 BAPTA, 10 HEPES, 3 MgCl2, 1 CaCl2, and 2 ATP-Mg salt (pH-adjusted to 7.2 with KOH). Extracellular solution (ECS) contained the following (in mM): 160 NaCl, 2.5 KCl, 10 HEPES, 10 glucose, 0.2 EDTA, and 0.7 CaCl2 (pH-adjusted to 7.3 with NaOH). Glycine (10 μM), an NMDAR co-agonist, was present in the control and test solutions. All (PA-S and PA-A) solutions were made from freshly prepared 20 mM PA-S and 5 mM PA-A stock in dimethyl sulfoxide (DMSO). The final dilution to ECS was made at 50 °C and followed by 1 min sonication (SONOREX DIGITEC DT 100/H, BADELIN electronic, Berlin, Germany). The same concentration of DMSO was added to all extracellular solutions. Drug applications were made with a microprocessor-controlled multibarrel fast-perfusion system. Changes in the glutamate-induced current in HEK293 cells transfected by GluN1/GluN2B subunits were used to estimate the rate of solution exchange around the cell. Standard ECS was switched to the ECS diluted by water (50%) during glutamate application. The osmolarity was adjusted by sucrose to match the standard ECS. Glutamate (1 mM), glycine (10 μM) and pH was maintained constant in both solutions. The solution exchange rate was estimated to be τ = 4.3 ± 0.3 ms (n = 6) for lifted cells and τ = 12.0 ± 0.9 ms (n = 6) for the attached cells.
as §2, with “used. Calculations of IC50 were made assuming 100% inhibition at saturating steroid concentration this is valid for both PA-S and PA-A[12][13].” for “used.”

GluN2B(Y646A) = target: T3, GluN2B(Y646A) (Rattus norvegicus, UniProt P35439+Q00960, Y646A); test: Whole-cell patch-clamp of GluN1/GluN2B(Y646A) receptor responses in HEK293 cells; type: cell-based
T3 construct: expressed in transfected cells; host or cells: HEK293
Excerpt: as §1, §2

[4] = system: mutated GluN1/GluN2B receptors; test: PA-S sensitivity of NMDARs mutated in the M1 and M3 regions of GluN1 and GluN2B (HEK293 cells); type: cell-based
Excerpt: as §3, §4
as §5, with “The solution exchange rate was estimated to be τ = 4.3 ± 0.3 ms (n = 6) for lifted cells and τ = 12.0 ± 0.9 ms (n = 6) for the attached cells.” left out
as §2

T2 sequence (Q00960 27-1482, other chains not shown): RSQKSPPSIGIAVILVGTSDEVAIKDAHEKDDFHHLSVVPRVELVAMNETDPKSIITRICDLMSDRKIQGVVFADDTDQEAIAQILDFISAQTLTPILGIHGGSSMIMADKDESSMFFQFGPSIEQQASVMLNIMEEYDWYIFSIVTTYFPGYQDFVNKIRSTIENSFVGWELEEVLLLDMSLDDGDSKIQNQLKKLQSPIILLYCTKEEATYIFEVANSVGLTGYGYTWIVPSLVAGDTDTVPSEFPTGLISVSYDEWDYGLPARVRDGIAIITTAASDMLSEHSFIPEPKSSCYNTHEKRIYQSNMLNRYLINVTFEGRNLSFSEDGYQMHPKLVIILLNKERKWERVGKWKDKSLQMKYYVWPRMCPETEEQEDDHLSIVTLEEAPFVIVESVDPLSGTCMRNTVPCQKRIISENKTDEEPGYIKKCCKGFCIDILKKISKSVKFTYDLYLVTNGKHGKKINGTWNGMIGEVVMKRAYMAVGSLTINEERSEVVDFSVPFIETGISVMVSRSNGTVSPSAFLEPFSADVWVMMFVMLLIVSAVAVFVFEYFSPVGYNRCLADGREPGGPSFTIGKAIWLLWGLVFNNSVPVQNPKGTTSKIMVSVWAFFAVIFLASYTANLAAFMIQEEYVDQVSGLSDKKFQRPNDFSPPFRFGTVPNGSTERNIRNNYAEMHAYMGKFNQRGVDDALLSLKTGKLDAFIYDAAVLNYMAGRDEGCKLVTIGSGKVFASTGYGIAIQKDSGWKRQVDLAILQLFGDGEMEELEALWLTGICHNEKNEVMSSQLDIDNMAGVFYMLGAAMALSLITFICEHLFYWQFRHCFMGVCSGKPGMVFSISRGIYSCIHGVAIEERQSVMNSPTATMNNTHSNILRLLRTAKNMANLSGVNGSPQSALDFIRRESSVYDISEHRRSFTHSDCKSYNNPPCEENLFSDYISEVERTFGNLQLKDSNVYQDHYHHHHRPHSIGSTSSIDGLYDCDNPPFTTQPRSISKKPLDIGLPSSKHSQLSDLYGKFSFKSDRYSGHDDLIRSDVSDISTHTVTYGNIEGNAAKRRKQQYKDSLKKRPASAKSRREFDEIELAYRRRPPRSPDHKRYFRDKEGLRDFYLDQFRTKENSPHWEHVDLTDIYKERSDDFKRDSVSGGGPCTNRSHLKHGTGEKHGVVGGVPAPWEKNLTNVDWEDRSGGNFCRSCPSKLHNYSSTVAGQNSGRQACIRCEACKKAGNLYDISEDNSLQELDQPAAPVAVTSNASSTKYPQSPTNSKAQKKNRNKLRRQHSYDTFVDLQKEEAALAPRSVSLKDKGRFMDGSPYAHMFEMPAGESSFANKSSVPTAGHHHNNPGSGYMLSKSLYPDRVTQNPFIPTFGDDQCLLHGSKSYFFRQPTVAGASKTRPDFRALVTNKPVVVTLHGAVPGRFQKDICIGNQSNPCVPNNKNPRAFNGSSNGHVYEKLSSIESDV
T1 sequence (Q9R1M7 24-1135, other chains not shown): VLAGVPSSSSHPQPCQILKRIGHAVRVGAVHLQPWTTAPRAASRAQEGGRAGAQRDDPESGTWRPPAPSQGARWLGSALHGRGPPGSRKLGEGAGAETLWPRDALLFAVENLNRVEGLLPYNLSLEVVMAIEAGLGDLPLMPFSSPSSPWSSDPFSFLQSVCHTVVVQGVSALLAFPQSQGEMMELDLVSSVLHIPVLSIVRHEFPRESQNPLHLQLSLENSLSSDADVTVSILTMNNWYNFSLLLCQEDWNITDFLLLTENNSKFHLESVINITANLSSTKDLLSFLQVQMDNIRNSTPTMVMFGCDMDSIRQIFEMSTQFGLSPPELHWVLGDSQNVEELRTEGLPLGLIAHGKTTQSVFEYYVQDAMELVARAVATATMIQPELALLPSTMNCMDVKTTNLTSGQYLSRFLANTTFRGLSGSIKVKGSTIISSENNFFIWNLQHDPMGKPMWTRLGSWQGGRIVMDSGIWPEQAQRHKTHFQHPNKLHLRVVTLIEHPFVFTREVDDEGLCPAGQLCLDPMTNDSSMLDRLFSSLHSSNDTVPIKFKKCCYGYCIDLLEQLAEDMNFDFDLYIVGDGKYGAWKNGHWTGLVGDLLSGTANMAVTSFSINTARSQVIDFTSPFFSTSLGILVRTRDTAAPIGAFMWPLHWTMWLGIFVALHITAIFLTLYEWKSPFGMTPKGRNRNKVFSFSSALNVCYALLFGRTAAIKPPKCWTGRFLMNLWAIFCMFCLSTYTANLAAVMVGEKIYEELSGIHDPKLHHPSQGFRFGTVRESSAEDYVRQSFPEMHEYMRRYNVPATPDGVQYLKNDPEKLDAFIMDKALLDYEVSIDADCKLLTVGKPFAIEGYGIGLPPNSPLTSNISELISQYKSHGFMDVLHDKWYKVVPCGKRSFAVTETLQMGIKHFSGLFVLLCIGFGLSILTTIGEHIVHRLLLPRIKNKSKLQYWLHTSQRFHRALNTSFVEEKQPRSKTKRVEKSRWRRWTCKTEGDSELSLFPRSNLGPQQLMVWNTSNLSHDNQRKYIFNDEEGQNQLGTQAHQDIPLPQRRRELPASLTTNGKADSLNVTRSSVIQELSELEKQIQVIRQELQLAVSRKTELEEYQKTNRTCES
T3 sequence (Q00960 27-1482 Y646A, other chains not shown): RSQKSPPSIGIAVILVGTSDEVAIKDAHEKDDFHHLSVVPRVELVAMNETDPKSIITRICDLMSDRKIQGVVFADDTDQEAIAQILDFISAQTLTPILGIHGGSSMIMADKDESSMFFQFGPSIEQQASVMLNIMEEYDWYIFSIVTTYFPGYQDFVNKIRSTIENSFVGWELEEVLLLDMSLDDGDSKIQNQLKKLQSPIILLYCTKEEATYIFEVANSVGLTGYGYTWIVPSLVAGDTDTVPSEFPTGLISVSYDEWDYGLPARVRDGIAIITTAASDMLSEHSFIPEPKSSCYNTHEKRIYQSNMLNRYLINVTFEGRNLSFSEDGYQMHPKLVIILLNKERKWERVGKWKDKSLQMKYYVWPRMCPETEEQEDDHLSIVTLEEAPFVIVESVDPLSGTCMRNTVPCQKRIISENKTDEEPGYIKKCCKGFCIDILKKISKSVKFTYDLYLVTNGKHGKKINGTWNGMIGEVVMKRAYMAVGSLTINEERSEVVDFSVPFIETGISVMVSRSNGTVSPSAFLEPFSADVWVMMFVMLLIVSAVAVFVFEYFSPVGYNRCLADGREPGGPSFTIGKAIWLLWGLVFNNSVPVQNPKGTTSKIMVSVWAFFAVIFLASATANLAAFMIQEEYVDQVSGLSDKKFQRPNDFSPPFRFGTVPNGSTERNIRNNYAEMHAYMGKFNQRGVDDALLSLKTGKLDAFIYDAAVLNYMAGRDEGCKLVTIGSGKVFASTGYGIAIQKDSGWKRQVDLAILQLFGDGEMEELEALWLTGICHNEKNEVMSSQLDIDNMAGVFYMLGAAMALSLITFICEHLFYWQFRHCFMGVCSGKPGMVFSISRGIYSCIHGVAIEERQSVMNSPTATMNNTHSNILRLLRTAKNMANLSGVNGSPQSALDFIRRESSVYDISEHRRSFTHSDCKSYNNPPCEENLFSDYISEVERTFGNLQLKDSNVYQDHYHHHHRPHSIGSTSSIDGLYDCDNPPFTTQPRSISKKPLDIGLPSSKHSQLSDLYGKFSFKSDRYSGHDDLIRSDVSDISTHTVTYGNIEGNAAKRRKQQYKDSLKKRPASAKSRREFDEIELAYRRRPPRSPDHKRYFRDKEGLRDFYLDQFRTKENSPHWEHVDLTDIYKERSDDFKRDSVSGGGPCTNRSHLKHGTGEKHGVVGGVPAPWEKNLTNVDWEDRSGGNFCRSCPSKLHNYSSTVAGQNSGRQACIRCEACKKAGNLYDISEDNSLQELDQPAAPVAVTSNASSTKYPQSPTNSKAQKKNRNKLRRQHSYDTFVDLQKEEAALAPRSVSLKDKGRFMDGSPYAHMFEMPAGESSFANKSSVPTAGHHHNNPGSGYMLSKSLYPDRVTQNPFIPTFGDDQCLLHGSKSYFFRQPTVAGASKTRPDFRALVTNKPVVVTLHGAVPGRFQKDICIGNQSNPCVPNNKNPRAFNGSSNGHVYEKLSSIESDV

CC(=O)[C@H]1CC[C@H]2[C@@H]3CC[C@@H]4C[C@H](OS(=O)(=O)O)CC[C@]4(C)[C@H]3CC[C@]12C [PA-S, 20-oxo-5β-pregnan-3α-yl sulfate]
effect on glutamate-induced responses [1]: inhibited
degree of PA-S inhibition, mutated vs WT GluN1-4a subunit in combination with GluN3A [2]: no significant difference
IC50 ([2]; glycine-activated, PA-S 50 µM): 27 ± 3 µM
IC50 [3]: 758 ± 27 µM
voltage dependence of steroid inhibition [3]: voltage independent
inhibition at 200 µM ([3]; read-out: degree of inhibition of agonist-evoked currents): 13.6 ± 0.9%
inhibition at 200 µM ([3]; read-out: degree of inhibition of spontaneous currents): 13.8 ± 0.7%
intercept of linear fit of mean inhibition versus holding potential ([3]; PA-S 200 µM, 1 mM glutamate): 15.8
IC50 (GluN2B(Y646A)): 4.3 ± 0.7 µM
difference of PA-S IC50 between GluN1(T648A)/GluN2B and GluN1/GluN2B(T647A) receptors [4]: 5.4 fold
change of PA-S IC50 relative to the WT receptor value ([4]; GluN1: F654A, GluN2B: P547A/S548A, F550A, L551A/E552A, F637A/F638A, Y646A, M654A, E657A/E658A): less than half
change of PA-S IC50 relative to the WT receptor value ([4]; GluN1: Y647A, T648A, A649T, N650A/L651A, V656A, GluN2B: S645A, T647A, A652T): over two-fold
IC50 ([4]; residues whose mutation decreased the IC50 by half (GluN1: F654A; GluN2B: P547A/S548A, F550A, L551A/E552A, F637A/F638A, Y646A, M654A, E657A/E658A)): < 21 µM
IC50 ([4]; residues whose mutation increased the IC50 more than two-fold (GluN1: Y647A, T648A, A649T, N650A/L651A, V656A; GluN2B: S645A, T647A, A652T)): > 84 µM
